# From ChEMBL document CHEMBL1201862, “PubChem BioAssay data set” (2004)
# Active and inactive are the calls of the source.
# Legend:
# Ion channel NompC = Ion channel NompC (Danio rerio, UniProt Q7T1G6); assay: Fluorescence counterscreen assay for TRPML3 agonists: dose response cell-based high-throughput screening assay to identify agonists of the transient receptor potential channel N1 (TRPN1). [Related pubchem assays: 1526, 1424, 1448 ]; type: functional
# Streptokinase A = molecular target: T1, Streptokinase A (Streptococcus pyogenes serotype M1, UniProt P10520); assay: S. pyogenes streptokinase expression inhibitors, potency, dose response, plasminogen activation absorbance, OD405 (AID 1914); type: functional, Streptococcus pyogenes M1 GAS;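 further: secreted streptokinase activity via plasminogen activation per viability signal from cell pellet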
# T1 sequence (P10520 whole entry): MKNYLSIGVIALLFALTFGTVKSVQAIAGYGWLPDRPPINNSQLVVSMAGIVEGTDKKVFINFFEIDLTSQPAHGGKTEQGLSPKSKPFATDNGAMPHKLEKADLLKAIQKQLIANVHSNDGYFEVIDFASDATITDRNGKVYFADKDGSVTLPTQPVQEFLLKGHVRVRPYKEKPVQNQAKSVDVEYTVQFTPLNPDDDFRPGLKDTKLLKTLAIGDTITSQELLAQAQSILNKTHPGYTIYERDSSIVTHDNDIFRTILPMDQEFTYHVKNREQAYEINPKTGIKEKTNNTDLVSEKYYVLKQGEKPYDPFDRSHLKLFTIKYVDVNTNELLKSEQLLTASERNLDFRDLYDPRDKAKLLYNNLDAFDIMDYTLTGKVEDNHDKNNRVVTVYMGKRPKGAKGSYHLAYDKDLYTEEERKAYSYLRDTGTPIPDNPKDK
# Streptococcus = assay: Group A Streptococcus viability loss, dose response, counter-screen for streptokinase expression inhibitor project, luminescence, BacTiterGlo (AID 1915); type: functional, organism-based;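 further: potency for reduction of bacterial viability or growth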
# Mucolipin-3 = molecular target: T2, Mucolipin-3 (Homo sapiens, UniProt Q8TDD5); assay: Dose response cell-based high-throughput screening assay for agonists of the transient receptor potential channel ML3 (TRPML3). [Related pubchem assays: 1526, 1424, 1448 ]; type: functional
# T2 sequence (Q8TDD5 whole entry): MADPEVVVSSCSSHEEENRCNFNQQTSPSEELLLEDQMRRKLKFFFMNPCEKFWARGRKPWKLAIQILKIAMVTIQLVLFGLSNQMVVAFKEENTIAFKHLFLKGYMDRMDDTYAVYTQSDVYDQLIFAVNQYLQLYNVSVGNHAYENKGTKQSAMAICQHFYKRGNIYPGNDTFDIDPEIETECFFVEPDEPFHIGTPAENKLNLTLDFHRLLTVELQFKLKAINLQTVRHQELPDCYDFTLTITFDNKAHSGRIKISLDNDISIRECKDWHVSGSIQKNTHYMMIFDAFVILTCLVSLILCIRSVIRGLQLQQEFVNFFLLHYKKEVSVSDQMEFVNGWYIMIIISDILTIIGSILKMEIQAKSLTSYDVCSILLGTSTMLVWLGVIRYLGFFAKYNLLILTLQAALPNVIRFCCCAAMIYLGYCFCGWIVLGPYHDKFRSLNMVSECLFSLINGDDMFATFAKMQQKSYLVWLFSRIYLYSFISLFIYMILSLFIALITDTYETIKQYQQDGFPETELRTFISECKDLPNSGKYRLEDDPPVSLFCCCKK
# [1] = test system: Streptococcus sp. 'group A'; assay: growth inhibition of control SK(-) GAS strain, dose response, counter-screen for streptokinase expression inhibitor project, luminescence, kanamycin, BacTiterGlo, confirmation (AID 1900); type: functional, organism-based
# SUMO-activating enzyme [2] = molecular target: T3, SUMO-activating enzyme (Homo sapiens, UniProt Q9UBT2); assay: inhibitors of in vitro SUMOylation cascade, primary screen, biochemical, HTRF, uHTS (AID 2006); type: protein-complex assay
# T3 sequence (Q9UBE0 whole entry): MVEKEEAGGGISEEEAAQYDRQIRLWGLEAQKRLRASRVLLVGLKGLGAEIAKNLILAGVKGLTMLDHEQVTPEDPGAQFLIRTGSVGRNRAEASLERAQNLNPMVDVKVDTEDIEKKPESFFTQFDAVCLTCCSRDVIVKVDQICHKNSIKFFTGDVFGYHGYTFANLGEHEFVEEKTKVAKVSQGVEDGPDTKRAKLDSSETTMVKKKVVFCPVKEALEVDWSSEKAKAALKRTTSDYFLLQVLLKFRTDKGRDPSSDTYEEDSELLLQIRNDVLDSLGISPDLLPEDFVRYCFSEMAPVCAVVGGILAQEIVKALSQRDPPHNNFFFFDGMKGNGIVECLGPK
# T3 sequence (Q9UBT2 whole entry): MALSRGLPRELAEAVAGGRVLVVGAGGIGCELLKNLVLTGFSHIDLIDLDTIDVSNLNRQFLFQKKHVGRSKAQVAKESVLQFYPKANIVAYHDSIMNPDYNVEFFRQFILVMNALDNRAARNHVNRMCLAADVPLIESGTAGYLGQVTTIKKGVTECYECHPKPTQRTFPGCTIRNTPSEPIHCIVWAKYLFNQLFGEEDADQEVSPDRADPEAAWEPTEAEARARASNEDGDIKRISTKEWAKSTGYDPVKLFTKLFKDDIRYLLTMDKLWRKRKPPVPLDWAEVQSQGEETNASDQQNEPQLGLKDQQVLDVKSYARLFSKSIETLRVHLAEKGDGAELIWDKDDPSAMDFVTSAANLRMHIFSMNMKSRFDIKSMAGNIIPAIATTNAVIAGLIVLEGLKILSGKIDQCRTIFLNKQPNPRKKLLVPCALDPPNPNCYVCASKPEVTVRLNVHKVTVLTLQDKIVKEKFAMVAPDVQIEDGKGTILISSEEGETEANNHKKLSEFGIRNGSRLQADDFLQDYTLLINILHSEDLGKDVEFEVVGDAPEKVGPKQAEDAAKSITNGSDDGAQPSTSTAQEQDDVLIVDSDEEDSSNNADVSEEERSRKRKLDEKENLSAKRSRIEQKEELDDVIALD
# SUMO-activating enzyme [3] = molecular target: T3, SUMO-activating enzyme; assay: SUMOylation inhibitor hit validation, confirmation, SUMOylation inhibitor project, biochemical, AlphaScreen (AID 2018); type: functional
# [4] = molecular target: T4, Calpain-2 catalytic subunit (Sus scrofa, UniProt P43367); assay: pig calpain II inhibitor potency, dose response, biochemical, fluorogenic peptide substrate (AID 1420); type: functional
# T4 sequence (P43367 whole entry): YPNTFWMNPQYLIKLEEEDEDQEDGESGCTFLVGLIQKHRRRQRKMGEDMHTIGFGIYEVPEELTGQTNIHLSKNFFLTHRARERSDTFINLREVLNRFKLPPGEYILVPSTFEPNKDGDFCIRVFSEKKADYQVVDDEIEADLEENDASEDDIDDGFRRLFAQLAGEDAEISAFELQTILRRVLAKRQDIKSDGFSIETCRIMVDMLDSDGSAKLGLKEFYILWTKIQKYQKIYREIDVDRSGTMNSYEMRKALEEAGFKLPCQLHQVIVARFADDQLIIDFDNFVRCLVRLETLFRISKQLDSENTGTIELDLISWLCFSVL
# [5] = molecular target: Dual specificity tyrosine-phosphorylation-regulated kinase 1A (Rattus norvegicus, UniProt Q63470); type: biochemical, Homo sapiens
# [6] = molecular target: Intestinal-type alkaline phosphatase (Homo sapiens, UniProt P09923); assay: Dose Response confirmation of uHTS hits from a small molecule inhibitors of human intestinal alkaline phosphatase via a luminescent assay. [Related pubchem assays (depositor defined):AID2544, AID2574]; type: functional
# [7] = molecular target: T5, Heat shock 70 kDa protein 1A (Homo sapiens, UniProt P0DMV8); assay: Hsp70 inhibitors, biochemical, TR-FRET (AID 786)
# T5 sequence (P0DMV8 whole entry): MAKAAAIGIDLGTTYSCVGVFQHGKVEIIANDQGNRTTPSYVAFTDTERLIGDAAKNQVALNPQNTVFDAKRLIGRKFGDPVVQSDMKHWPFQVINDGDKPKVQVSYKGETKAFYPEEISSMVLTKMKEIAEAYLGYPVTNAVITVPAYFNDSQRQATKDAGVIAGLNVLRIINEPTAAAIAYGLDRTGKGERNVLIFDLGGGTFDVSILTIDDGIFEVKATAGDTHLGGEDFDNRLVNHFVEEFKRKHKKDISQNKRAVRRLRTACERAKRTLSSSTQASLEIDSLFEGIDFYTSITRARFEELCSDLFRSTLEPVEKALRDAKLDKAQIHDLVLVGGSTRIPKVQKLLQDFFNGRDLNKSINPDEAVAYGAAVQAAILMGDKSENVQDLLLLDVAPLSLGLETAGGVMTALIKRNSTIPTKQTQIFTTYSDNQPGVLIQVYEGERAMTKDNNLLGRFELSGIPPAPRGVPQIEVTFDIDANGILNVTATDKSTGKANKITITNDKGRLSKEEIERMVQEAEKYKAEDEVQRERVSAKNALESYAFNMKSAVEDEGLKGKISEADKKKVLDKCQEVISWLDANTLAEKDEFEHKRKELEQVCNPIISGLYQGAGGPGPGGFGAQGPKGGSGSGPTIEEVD
# [8] = molecular target: T5, Heat shock 70 kDa protein 1A; assay: Hsp70 inhibitors, probe displacement, primary screen, biochemical, fluorescence polarization (AID 583)
# [9] = molecular target: Peroxisome proliferator-activated receptor gamma/Nuclear receptor coactivator 3 (Homo sapiens, UniProt P37231); assay: (§1) TR-FRET dose response biochemical High Throughput Screening assay for agonists of the steroid receptor coactivator 3 (SRC-3) recruitment by the peroxisome proliferator-activated receptor gamma (PPAR gamma): non-selective agonists. [Related pubchem assays: 1301 (Confirmation screen.), 1048 (Primary screen.)]; type: functional
# [10] = NIH-3T3 fibroblast cytotoxicity, dose response, cytotoxicity control, cell-based, fluorescence, Alamar Blue, secondary assay (AID 2327); type: functional;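 further: NIH-3T3 mouse fibroblasts cultured with fluconazole at 8 µg/mL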
# [11] = molecular target: T6, Long-chain-fatty-acid--AMP ligase FadD28 (Mycobacterium tuberculosis, UniProt P9WQ59); assay: Fluorescence polarization aasay to screen for inhibitors that compete for the binding of FadD28 to a bisubstrate Measured in Biochemical System Using Plate Reader - 2147-01_Inhibitor_Dose_CherryPick_Activity.; type: functional, Mycobacterium tuberculosis H37Rv
# T6 sequence (P9WQ59 whole entry): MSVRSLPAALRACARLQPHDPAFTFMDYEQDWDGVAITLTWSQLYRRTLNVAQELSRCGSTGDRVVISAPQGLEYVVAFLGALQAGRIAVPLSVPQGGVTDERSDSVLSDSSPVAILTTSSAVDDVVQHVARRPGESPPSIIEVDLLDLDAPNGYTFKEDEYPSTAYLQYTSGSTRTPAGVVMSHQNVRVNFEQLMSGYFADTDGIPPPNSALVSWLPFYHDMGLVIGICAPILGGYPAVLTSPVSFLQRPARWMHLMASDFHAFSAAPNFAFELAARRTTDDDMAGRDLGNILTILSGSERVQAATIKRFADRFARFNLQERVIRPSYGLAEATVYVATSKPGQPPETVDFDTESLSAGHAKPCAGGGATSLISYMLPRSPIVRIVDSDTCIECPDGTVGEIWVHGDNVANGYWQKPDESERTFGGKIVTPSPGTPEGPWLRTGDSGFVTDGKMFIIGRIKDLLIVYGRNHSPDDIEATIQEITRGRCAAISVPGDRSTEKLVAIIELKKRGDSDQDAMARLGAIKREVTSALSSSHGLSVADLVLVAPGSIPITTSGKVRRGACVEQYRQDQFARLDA
# [12] = C. albicans growth with fluconazole, confirmation, fluorescence, retest (AID 2467); type: functional, cell-based
# [13] = molecular target: T7, Serine/threonine-protein phosphatase (Candida dubliniensis (strain CD36 / CBS 7987 / NCPF 3949 / NRRLY-17841) (Yeast), UniProt B9W6M3); assay: calcineurin pathway inhibitors in yeast reporter, dose response, S. cerevisiae, CDRE-lacZ, luminescence, secondary (AID 2388); type: functional, cell-based;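 further: yeast reporter cells carrying a calcineurin-responsive lacZ construct stimulated with calcium chloride; luminescent beta-galactosidase reporter signal in whole cells rather than isolated phosphatase activity; potency for inhibition where a drop in reporter signal means calcineurin blockade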
# T7 sequence (B9W6M3 whole entry): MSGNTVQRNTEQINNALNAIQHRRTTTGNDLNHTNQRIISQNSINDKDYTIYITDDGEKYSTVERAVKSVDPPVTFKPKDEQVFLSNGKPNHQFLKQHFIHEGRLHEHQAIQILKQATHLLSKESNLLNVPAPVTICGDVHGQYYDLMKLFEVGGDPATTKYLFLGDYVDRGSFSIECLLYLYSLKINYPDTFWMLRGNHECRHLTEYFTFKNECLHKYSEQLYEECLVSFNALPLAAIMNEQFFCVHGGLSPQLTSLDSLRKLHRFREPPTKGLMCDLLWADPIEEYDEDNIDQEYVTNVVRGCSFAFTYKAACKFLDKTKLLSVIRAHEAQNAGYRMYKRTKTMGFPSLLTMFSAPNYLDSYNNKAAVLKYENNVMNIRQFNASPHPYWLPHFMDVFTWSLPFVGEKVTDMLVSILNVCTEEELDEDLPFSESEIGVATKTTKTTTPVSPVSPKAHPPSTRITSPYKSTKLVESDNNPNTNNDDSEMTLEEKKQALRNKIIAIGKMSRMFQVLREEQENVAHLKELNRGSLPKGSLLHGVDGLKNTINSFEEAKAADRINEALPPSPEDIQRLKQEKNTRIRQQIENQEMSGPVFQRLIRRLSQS
# [14] = molecular target: Peroxisome proliferator-activated receptor gamma/Nuclear receptor coactivator 1 (Homo sapiens, UniProt P37231); assay: as §1, with “1 (SRC-1)” for “3 (SRC-3)”, “assays (depositor defined):AID1300, AID1808, AID504735, AID631]” for “assays: 1301 (Confirmation screen.), 1048 (Primary screen.)]”; type: protein assay
# [15] = molecular target: ATP-dependent molecular chaperone HSP82 (Candida albicans (strain WO-1) (Yeast), UniProt C4YTQ8); assay: loss of DOC-induced GRE-beta-galactosidase reporter signal, dose response, Hsp90 inhibitor project, S. cerevisiae, luminescence (AID 2400); type: functional, cell-based;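 further: beta-galactosidase luminescence from glucocorticoid response element reporter as proxy for Hsp90 function; inhibitor potency where signal loss means Hsp90 inhibition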
# ATP-dependent molecular chaperone HSP82, sequence (C4YTQ8 whole entry): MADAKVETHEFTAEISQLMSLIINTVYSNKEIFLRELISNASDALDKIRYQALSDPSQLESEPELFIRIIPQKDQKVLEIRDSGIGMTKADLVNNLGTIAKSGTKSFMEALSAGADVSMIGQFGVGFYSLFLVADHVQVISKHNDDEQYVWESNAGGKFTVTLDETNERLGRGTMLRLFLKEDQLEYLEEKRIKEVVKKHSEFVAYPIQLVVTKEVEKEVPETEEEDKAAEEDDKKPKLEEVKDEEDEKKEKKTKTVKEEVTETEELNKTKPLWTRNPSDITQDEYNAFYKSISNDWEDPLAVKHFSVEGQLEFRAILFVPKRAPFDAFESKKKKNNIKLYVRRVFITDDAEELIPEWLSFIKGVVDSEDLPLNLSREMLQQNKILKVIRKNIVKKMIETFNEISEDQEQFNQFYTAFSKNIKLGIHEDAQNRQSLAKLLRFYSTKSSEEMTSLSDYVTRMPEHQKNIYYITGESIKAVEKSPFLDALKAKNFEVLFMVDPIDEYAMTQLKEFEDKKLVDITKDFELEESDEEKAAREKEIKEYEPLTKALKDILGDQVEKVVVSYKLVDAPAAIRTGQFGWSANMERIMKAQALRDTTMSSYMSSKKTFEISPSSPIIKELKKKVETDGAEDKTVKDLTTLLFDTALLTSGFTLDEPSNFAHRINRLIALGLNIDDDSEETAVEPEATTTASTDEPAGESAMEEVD
# NS3 = NS3 (Hepatitis C virus, UniProt A3EZJ3); assay: PubChem AID 2173; design: species or system Hepacivirus hominis
# NS3, sequence (A3EZJ3 whole entry): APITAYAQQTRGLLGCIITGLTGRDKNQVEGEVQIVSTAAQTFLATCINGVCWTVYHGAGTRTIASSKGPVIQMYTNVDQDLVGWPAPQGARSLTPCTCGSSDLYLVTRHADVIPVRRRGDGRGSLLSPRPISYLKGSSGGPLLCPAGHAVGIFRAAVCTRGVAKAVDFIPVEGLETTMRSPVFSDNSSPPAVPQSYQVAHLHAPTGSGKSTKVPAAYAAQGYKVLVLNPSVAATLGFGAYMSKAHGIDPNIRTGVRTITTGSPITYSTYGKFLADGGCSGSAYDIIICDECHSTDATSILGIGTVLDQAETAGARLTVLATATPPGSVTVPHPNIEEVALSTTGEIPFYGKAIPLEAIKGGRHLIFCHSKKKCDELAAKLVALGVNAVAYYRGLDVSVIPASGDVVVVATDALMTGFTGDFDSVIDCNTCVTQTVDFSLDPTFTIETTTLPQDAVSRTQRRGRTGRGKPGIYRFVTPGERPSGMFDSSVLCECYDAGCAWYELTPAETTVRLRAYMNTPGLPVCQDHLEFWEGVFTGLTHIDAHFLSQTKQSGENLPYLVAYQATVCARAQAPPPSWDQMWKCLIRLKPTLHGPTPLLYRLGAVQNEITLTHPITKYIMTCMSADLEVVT
# [16] = molecular target: Peroxisome proliferator-activated receptor gamma/Nuclear receptor coactivator 2 (Homo sapiens, UniProt P37231); assay: TR-FRET dose response biochemical High Throughput Screening assay for agonists of the steroid receptor coactivator 2 (SRC-2) recruitment by the peroxisome proliferator-activated receptor gamma (PPAR gamma): non-selective agonists. [Related pubchem assays: 1297, 1032 ]; type: functional
# fMet-Leu-Phe receptor = molecular target: T8, fMet-Leu-Phe receptor (Homo sapiens, UniProt P21462); assay: FPR ligands, dose response (AID 519); type: functional
# T8 sequence (P21462 whole entry): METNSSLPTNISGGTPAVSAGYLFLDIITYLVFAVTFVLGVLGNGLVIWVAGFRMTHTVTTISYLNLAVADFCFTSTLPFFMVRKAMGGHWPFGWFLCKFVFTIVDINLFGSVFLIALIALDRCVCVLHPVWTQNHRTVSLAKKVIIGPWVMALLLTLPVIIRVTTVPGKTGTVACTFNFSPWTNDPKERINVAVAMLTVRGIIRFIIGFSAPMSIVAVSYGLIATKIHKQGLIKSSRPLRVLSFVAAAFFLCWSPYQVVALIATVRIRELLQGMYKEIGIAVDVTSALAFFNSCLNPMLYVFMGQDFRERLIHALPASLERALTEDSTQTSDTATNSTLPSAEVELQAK
# Ion channel NompC, sequence (Q7T1G6 whole entry): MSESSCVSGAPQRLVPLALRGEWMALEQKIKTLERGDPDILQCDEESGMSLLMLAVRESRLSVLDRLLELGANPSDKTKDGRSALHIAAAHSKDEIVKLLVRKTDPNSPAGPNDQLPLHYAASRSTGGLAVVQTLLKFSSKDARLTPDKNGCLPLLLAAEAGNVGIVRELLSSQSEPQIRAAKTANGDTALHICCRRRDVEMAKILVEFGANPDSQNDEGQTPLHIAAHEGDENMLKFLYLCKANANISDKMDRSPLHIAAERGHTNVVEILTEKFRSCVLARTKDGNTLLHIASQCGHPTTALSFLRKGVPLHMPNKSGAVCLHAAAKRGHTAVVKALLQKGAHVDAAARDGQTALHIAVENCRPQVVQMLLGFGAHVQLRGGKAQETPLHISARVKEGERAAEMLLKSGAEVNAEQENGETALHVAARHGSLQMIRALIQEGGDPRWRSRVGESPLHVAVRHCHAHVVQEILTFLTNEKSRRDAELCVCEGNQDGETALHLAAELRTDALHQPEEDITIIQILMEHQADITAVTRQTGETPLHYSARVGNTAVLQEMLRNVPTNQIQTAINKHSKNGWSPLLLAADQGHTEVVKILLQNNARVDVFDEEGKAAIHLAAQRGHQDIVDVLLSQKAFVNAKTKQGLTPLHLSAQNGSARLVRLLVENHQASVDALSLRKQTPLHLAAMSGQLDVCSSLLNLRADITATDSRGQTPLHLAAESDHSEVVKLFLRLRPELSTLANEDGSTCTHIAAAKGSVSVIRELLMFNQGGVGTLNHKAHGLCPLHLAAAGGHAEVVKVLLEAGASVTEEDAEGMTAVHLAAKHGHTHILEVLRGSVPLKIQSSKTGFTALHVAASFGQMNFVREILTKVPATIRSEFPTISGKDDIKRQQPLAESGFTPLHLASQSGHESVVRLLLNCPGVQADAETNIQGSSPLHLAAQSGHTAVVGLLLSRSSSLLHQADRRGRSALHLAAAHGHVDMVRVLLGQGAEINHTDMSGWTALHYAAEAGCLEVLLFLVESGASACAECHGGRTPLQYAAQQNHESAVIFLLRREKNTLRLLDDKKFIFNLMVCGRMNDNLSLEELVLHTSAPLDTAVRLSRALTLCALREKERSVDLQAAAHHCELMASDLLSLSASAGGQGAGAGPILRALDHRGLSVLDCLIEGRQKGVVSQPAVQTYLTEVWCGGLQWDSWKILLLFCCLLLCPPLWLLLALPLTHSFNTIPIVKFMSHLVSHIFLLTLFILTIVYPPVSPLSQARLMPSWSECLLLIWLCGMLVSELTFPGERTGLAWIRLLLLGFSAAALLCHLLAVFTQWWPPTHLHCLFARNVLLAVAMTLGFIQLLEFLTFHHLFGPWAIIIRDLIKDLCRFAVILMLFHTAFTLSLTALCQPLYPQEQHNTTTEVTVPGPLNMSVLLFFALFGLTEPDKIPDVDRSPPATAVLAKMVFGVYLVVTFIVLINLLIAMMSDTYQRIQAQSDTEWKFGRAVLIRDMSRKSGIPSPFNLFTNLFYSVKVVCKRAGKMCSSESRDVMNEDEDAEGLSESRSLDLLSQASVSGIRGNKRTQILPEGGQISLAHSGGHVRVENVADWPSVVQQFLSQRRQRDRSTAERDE
structure (smiles),measurement,setting,value
Cc1cc(C)n(-c2nc(C)nc(NCc3ccccc3)n2)n1,EC50,Ion channel NompC,> 29.9 µM (not active)
same,EC50,Streptokinase A,> 150 µM (not active)
same,EC50,Streptococcus,> 150 µM (not active)
same,EC50,Mucolipin-3,> 29.9 µM (not active)
same,EC50,[1],42.4 µM (active)
O=C(Nc1ccc(F)cc1)C(=O)c1c(O)[nH]c2ccc([N+](=O)[O-])cc12,IC50,SUMO-activating enzyme [2],24 µM (active)
same,IC50,SUMO-activating enzyme [3],9.48 µM (active)
same,IC50,[4],> 50 µM (not active)
same,AC50,[5],10.4 µM (active)
NC(=O)c1ccc(NC(=O)C2CCCC2)cc1,IC50,[6],> 100 µM (inactive)
CCOc1ccccc1N1Cc2cc(C)c(C)cc2C1,IC50,[7],> 100 µM (not active)
same,IC50,[8],> 100 µM (not active)
COc1ccc(OC)c(C2C(C(=O)c3cc4ccccc4o3)=C(O)C(=O)N2c2cc(C)on2)c1 (configuration not stated),EC50,[9],> 79.4 µM (not active)
same,EC50,[10],> 150 µM (inactive)
same,AC50,[11],> 100 µM (inactive)
same,EC50,[12],0.046 µM (active)
same,EC50,[13],> 180 µM (inactive)
same,EC50,[14],> 79.4 µM (inactive)
same,EC50,[15],21.6 µM (active)
same,IC50,NS3,5.29 µM (active)
same,EC50,[16],36 µM (not active)
same,Ki,fMet-Leu-Phe receptor,36.6 µM (inactive)
